Tests used:
[1] = PK profile of GLP-2-2G peptide, GLP-2-hyFc5 and GLP-2-hyFc9, subcutaneous, rats; design: species or system Sprague Dawley rats; conditions: in vivo, sc, rat, serum, GLP-2 ELISA kit
Procedure: In order to confirm the pharmacokinetic profiles (PK profiles) of the GLP-2-hyFc5 and GLP-2-hyFc9 fusion polypeptides prepared above, experiments were performed as follows.
Male Sprague Dawley rats (3 rats/group) were administered subcutaneously with respective proteins (GLP-2-2G peptide, GLP-2-hyFc5, and GLP-2-hyFc9). Blood samples were collected before the administration and after the administration at 0.08-, 0.16-, 0.5-, 2-, 4-, 8-, 24-, 48-, 96-, 120-, and 168 hours, respectively. The blood samples were stored at room temperature for 30 minutes for agglutination. The samples were centrifuged at 3000 rpm for 10 minutes to obtain serum from each sample and then stored in a deep freezer. The samples were quantitated by dilution to be analyzed in a position on a straight line of standard curve using GLP-2 kit (Millipore, Cat. No. EZGLP2-37K).

[2] = cited from earlier work

CC[C@H](C)[C@H](NC(=O)[C@H](Cc1ccccc1)NC(=O)[C@H](CC(=O)O)NC(=O)[C@H](CCCNC(=N)N)NC(=O)[C@H](C)NC(=O)[C@H](C)NC(=O)[C@H](CC(C)C)NC(=O)[C@H](CC(N)=O)NC(=O)[C@H](CC(=O)O)NC(=O)[C@H](CC(C)C)NC(=O)[C@@H](NC(=O)[C@@H](NC(=O)[C@H](CC(N)=O)NC(=O)[C@H](CCSC)NC(=O)[C@H](CCC(=O)O)NC(=O)[C@H](CC(=O)O)NC(=O)[C@H](CO)NC(=O)[C@H](Cc1ccccc1)NC(=O)[C@H](CO)NC(=O)CNC(=O)[C@H](CC(=O)O)NC(=O)CNC(=O)[C@@H](N)Cc1c[nH]cn1)[C@@H](C)O)[C@@H](C)CC)C(=O)N[C@@H](CC(N)=O)C(=O)N[C@@H](Cc1c[nH]c2ccccc12)C(=O)N[C@@H](CC(C)C)C(=O)N[C@H](C(=O)N[C@@H](CCC(N)=O)C(=O)N[C@H](C(=O)N[C@@H](CCCCN)C(=O)N[C@H](C(=O)N[C@H](C(=O)N[C@@H](CC(=O)O)C(=O)O)[C@@H](C)O)[C@@H](C)CC)[C@@H](C)O)[C@@H](C)CC [GLP-2-2G, reference compound]
half-life [1]: 1.2 h

glucagon like peptide-2 [GLP-2]
in-vivo half-life [2]: about 7 minutes

From US10538569B2, “Fusion polypeptide containing GLP and immunoglobulin hybrid Fc and use thereof” (GENEXINE, INC., priority 2014, dated 2020)
